Test results published in patent US9157904B2, “Wnt antagonists and methods of treatment and screening” (OncoMed Pharmaceuticals, Inc., priority 2010, dated 2015).

Key:
Assay type in all cases: in vivo, NOD/SCID mice
PN4 pancreas tumor = PN4 pancreas tumor xenograft, tumor growth; settings: FZD8-Fc 15 mg/kg i.p. twice weekly, vs control antibody
Experimental: The anti-tumor activity of FZD8-Fc (54F03) was evaluated in the PN4 pancreas tumor xenograft model. Dissociated OMP-PN4 cells (50,000 per animal) were injected subcutaneously into 6-8 week old male NOD/SCID mice. Tumor growth was monitored weekly and tumor measurements were initiated once tumors were palpable. On day 50, mice with average tumor volumes of 137 mm^3 were randomized into 4 groups of 10 animals each. Animals were injected with either control antibody, FZD8-Fc (15 mg/kg), gemcitabine (2 mg/kg) or a combination of FZD8-Fc and gemcitabine. Administration of the FZD8-Fc and gemcitabine was performed via injection into the intra-peritoneal cavity, once weekly (gemcitabine) or twice weekly (FZD8-Fc). Tumors were measured twice a week and tumor volume was determined using the formula ½(a×b^2); where a=length, and b=breadth. Data are expressed as mean and mean±S.E.M. Group means were compared using Student's two-tailed, unpaired t test.

PN4 tumors = assay: FACS for ESA, CD44 and CD201 on PN4 tumors treated with variants; settings: vs control antibody
Experimental: Pancreatic tumor cells from the tumor-bearing mice described above were harvested and minced into approximately 1 mm^3 fragments, followed by enzymatic digestion at 1 gram per 10 ml of 300 μg/ml collagenase and 200 U/ml DNase I for 2 hours at 37° C./5% CO2 with intermittent mixing with a 10 ml pipet to disperse cells. Digestion was stopped by adding an equal volume of FACS buffer (1× Hanks Buffered Saline Solution (HBSS), 2% heat-inactivated Fetal Calf Serum (FCS) and 2 mM HEPES pH 7.4). Cells were filtered through 40 μm nylon filters and collected by centrifugation at 150×g for 5 minutes. Red blood cells were lysed in a hypotonic buffer containing ammonium chloride for 2 minutes on ice, and the cells were washed again with excess FACS buffer, and resuspended with FACS buffer at 1×10^7 cells/ml.
The freshly prepared single cell suspensions were stained for 20 minutes on ice with biotinylated anti-mouse H-2Kd (clone SF1-1.1, Biolegend, San Diego, Calif.) at 5 μg/ml, biotinylated anti-mouse CD45 (30-F11, Biolegend) at […], and streptavidin-PerCP-Cy5.5 (eBioscience, San Diego, Calif.) at 1:200 dilution. Unbound antibody was removed by washing twice with 10 volume of FACS buffer. […]

C28 tumors = assay: CK20 immunohistochemistry of treated C28 tumors; settings: vs control antibody
Experimental: Control and treated tumors from the C28 xenograft study described above (Example 6) were harvested at the end of the study. The tumors were excised and immunohistochemistry analysis was performed using standard techniques. Briefly, tumors were fixed in formalin, embedded in paraffin, and tumor sections of 4 um thickness were cut. After deparaffinization and hydration, the tumor sections were subjected to an antigen retrieval process in Tris buffer (pH 9.5). Sections were incubated with hydrogen peroxide (Sigma-Aldrich, St Louis, Mo.) for 10 minutes to block endogenous peroxidases. Anti-CK20 (clone Ks20.8, Dako, Carpinteria, Calif.) antibody in blocking buffer at 1:200 dilution (3% NHS, 1% BSA, 0.1% Tween-20, in PBS) was added to each section and incubated for 1 hour. Slides were rinsed 3 times in PBST for 5 minutes each. Anti-mouse secondary antibody conjugated with HRP (ImmPRESS™ anti-mouse Ig, Vector Laboratories Inc., Burlingame, Calif.) was added to the slides and incubated for 30 minutes. After multiple washes with PBST, Vector Nova Red substrate (Vector Laboratories Inc., Burlingame, Calif.) was added for localization of CK20 antigen.

PN21 tumors = assay: Alcian blue and Ki67 staining of treated PN21 tumors
Experimental: The cell differentiation capability of FZD8-Fc was also evaluated in the OMP-PN21 pancreas tumor xenograft model. PN21 tumors from studies described in Example 8 were harvested and fixed in formalin, embedded in paraffin, and tumor sections of 4 μm thickness were cut. After deparaffinization and hydration, the tumor sections were subjected to an antigen retrieval process in Tris buffer (pH 9.5). Sections were incubated with hydrogen peroxide (Sigma-Aldrich, St Louis, Mo.) for 10 minutes to block endogenous peroxidases. Anti-Ki67 antibody (clone MIB-1, Dako, Carpinteria, Calif.) in blocking buffer (3% NHS, 1% BSA, 0.1% Tween-20 in PBS) at 1:200 dilution was added to each section and incubated for 1 hour. Slides were rinsed 3 times in PBST for 5 minutes each. Anti-mouse secondary antibody conjugated with HRP (ImmPRESS™ anti-mouse, Vector Laboratories Inc., Burlingame, Calif.) was added to the slides and incubated for 30 minutes. After multiple washes with PBST, Vector Nova Red substrate (Vector Laboratories Inc., Burlingame, Calif.) was added for localization of Ki67 antigen. The sections were treated with aqueous acetic acid for 5 minutes at room temperature. The sections were then treated with 1% alcian blue in 3% aqueous acetic acid for 30 minutes and washed with water. Sections were counter-stained in neutral fast red, dehydrated and mounted. […]

C28 colon tumor = C28 colon tumor xenograft, FZD8-Fc variants (Example 14); settings: C28 established tumors; 15 mg/kg i.p. twice a week
Experimental: Dissociated C28 colon tumor cells (10,000 cells) were injected subcutaneously into 6-8 week old male NOD/SCID mice. Tumors were allowed to grow for 28 days until they reached an average volume of 145 mm^3. The mice were randomized (n=9 per group) and treated with FZD8-Fc variants or a control antibody at a dose of 15 mg/kg twice a week. Administration of the FZD8-Fc variants and control antibody was performed via injection into the intraperitoneal cavity. Tumor growth was monitored and tumor volumes were measured with electronic calipers at the indicated time points. Data are expressed as mean±S.E.M.

54F03: Fri domain of human FZD8 fused to human IgG1 Fc with GRA linker; SEQ ID NO:1
reduction in tumor growth (PN4 pancreas tumor): 66%
percentage of CD44^hi cells (PN4 tumors): decreased the percentage of CD44^hi cells
percentage of CD201^+CD44^+ cells (PN4 tumors): decreased the percentage of CD201^+CD44^+ cells
cells expressing CK20 (C28 tumors): increase in cells expressing CK20
proliferating cells denoted by expression of Ki67 (PN21 tumors): decrease in proliferating cells
cells expressing sialomucins (alcian blue) (PN21 tumors; vs control antibody or gemcitabine alone): increase in cells expressing sialomucins
reduction in tumor growth as compared to control antibody (C28 colon tumor): approximately 56%
